Test results taken from patent US4593093A, “Acyl derivatives” (priority 1980, dated 1986).
Counter-ions that a name gives are not always drawn. Like-named read-outs stand apart in the source and are kept apart here.

Columns and labels:
Escherichia coli [1] = assay: Activity in vitro: minimum inhibitory concentration; assay type: cell-based
Proteus mirabilis = assay: as above; assay type: cell-based
Proteus morganii = assay: as above; assay type: cell-based; details: Morganella morganii
Proteus rettgeri = assay: as above; assay type: cell-based; details: Providencia rettgeri
Proteus inconstans = assay: as above; assay type: cell-based; details: Providencia alcalifaciens
Klebsiella pseumoniae = assay: as above; assay type: cell-based
Serratia marcescens [2] = assay: as above; assay type: cell-based
Enterobacter cloacae [3] = assay: as above; assay type: cell-based
Enterobacter aerogenes = assay: as above; assay type: cell-based; details: Klebsiella aerogenes
Citrobacter freundii = assay: as above; assay type: cell-based
Pseudomonas aeruginosa [4] = assay: as above; assay type: cell-based
Staphylococcus aureus [5] = assay: as above; assay type: cell-based
Staphylococcus epidermis = assay: as above; assay type: cell-based
Streptococcus faecalis = assay: as above; assay type: cell-based; details: Enterococcus faecalis
Streptococcus pyogenes [6] = assay: as above; assay type: cell-based
Streptococcus pneumoniae = assay: as above; assay type: cell-based
Streptococcus viridans = assay: as above; assay type: cell-based
Enterobacter cloacae [7] = assay: Activity in vivo: survival of intraperitoneally infected mice; details: sc, 96 h; mice infected i.p. with Enterobacter cloacae; s.c. twice, 1 h and 3 h after infection; survival on 4th day; read-out: CD50 (dosage at which 50% of the animals survive)
Procedure: (§1) Groups of 5 mice are infected intraperitoneally with an aqueous suspension of various pathogens. The test substance in physiological sodium chloride solution is administered subcutaneously twice, i.e. 1 hour and 3 hours after the infection. The number of surviving animals is determined on the 4th day. Various dosages are administered and that dosage at which 50% of the experimental animals survive (CD50, mg/kg) is determined by interpolation.

Escherichia coli [8] = assay: as above; details: sc, 96 h; mice infected i.p. with Escherichia coli; s.c. twice, 1 h and 3 h after infection; survival on 4th day; read-out: CD50 (dosage at which 50% of the animals survive)
Procedure: as §1

Haemophilus influenzae = assay: as above; details: sc, 96 h; mice infected i.p. with Haemophilus influenzae; s.c. twice, 1 h and 3 h after infection; survival on 4th day; read-out: CD50 (dosage at which 50% of the animals survive)
Procedure: as §1

Serratia marcescens [9] = assay: as above; details: sc, 96 h, 1 h and 3 h after infection, survival on 4th day, read-out: CD50 (dosage at which 50% of the animals survive)
Procedure: as §1

Streptococcus pyogenes [10] = assay: as above; details: sc, 96 h; mice infected i.p. with Streptococcus pyogenes; s.c. twice, 1 h and 3 h after infection; survival on 4th day; read-out: CD50 (dosage at which 50% of the animals survive)
Procedure: as §1

Pseudomonas aeruginosa [11] = assay: as above; details: sc, 96 h; mice infected i.p. with Pseudomonas aeruginosa; s.c. three times, 1 h, 3 h and 5 h after infection; survival on 4th day; read-out: CD50 (dosage at which 50% of the animals survive)
Procedure: as §1
*Administered subcutaneously three times: 1 hour, 3 hours and 5 hours

Neisseria moningitidis = assay: as above; details: sc, 96 h; mice infected i.p. with Neisseria moningitidis; s.c. twice, 1 h and 4 h after infection; survival on 4th day; read-out: CD50 (dosage at which 50% of the animals survive)
Procedure: as §1
**Administered subcutaneously twice: 1 hour and 4 hours after the […]

Toxicity, LD50 = details: in vivo
Staphylococcus aureus [12] = assay: Activity in vivo: survival of intraperitoneally infected mice; details: sc, 96 h; mice infected i.p. with Staphylococcus aureus; s.c. twice, 1 h and 3 h after infection; survival on 4th day; read-out: CD50 (dosage at which 50% of the animals survive)
Procedure: as §1

[13] = Enterobacter aerogenes strain 1
[14] = Enterobacter aerogenes strain 2
[15] = Pseudomonas aeruginosa strain 1
[16] = Pseudomonas aeruginosa strain 3
[17] = Streptococcus faecalis strain 1
[18] = Streptococcus faecalis strain 2
[19] = Streptococcus pyogenes strain 1, read-out: Minimum inhibitory concentration
[20] = Streptococcus pyogenes strain 2, read-out: Minimum inhibitory concentration
[21] = mice infected i.p. with Serratia marcescens strain 1, s.c. twice

CO/N=C(\C(=O)N[C@@H]1C(=O)N2C(C(=O)O)=C(CSc3nc(=O)c(O)nn3C)C[S+]([O-])[C@H]12)c1c[se]c(N)n1 (stereo partly drawn) [Product E, (6R, 7R)-7-[2-(2-amino-4-selenazolyl)-2-[(Z)-methoxyimino]-acetamido]-3-[[(2,5-dihydro-6-hydroxy-2-methyl-5-oxo-as-triazin-3-yl)-thio]methyl]-8-oxo-5-thia-1-azabicyclo[4.2.0]oct-2-ene-2-carboxylic acid 5-oxide disodium salt]
MIC (Escherichia coli [1]; Escherichia coli strain 1): 0.1 µg/mL | MIC (Escherichia coli [1]; Escherichia coli strain 2): 0.025 µg/mL | MIC (Escherichia coli [1]; Escherichia coli strain 3): 0.8 µg/mL | MIC (Escherichia coli [1]; Escherichia coli strain 4): 0.05 µg/mL | MIC (Escherichia coli [1]; Escherichia coli strain 5): 0.4 µg/mL | MIC (Proteus mirabilis; Proteus mirabilis strain 3): 0.05 µg/mL | MIC (Proteus mirabilis; Proteus mirabilis strain 4): 0.4 µg/mL | MIC (Proteus mirabilis; Proteus mirabilis strain 5): 0.1 µg/mL | MIC (Proteus morganii): 0.1 µg/mL | MIC (Proteus rettgeri): 0.05 µg/mL | MIC (Proteus inconstans): 0.025 µg/mL | MIC (Klebsiella pseumoniae; Klebsiella pseumoniae strain 1): 0.1 µg/mL | MIC (Klebsiella pseumoniae; Klebsiella pseumoniae strain 2): 0.05 µg/mL | MIC (Klebsiella pseumoniae; Klebsiella pseumoniae strain 3): 0.1 µg/mL | MIC (Serratia marcescens [2]; Serratia marcescens strain 1): 0.8 µg/mL | MIC (Serratia marcescens [2]; Serratia marcescens strain 2): 0.8 µg/mL | MIC (Serratia marcescens [2]; Serratia marcescens strain 3): 0.2 µg/mL | MIC (Enterobacter cloacae [3]; Enterobacter cloacae strain 1): 1.6 µg/mL | MIC (Enterobacter cloacae [3]; Enterobacter cloacae strain 2): 0.2 µg/mL | MIC (Enterobacter cloacae [3]; Enterobacter cloacae strain 3): 1.6 µg/mL | MIC (Enterobacter aerogenes; [13]): 0.1 µg/mL | MIC (Enterobacter aerogenes; [14]): 0.05 µg/mL | MIC (Citrobacter freundii; Citrobacter freundii strain 1): 0.1 µg/mL | MIC (Citrobacter freundii; Citrobacter freundii strain 2): 0.1 µg/mL | MIC (Pseudomonas aeruginosa [4]; [15]): 100 µg/mL | MIC (Pseudomonas aeruginosa [4]; Pseudomonas aeruginosa strain 2): 100 µg/mL | MIC (Pseudomonas aeruginosa [4]; [16]): 50 µg/mL | MIC (Staphylococcus aureus [5]; Staphylococcus aureus strain 1): > 12 µg/mL | MIC (Staphylococcus aureus [5]; Staphylococcus aureus strain 2): > 12 µg/mL | MIC (Staphylococcus aureus [5]; Staphylococcus aureus strain 3): > 12 µg/mL | MIC (Staphylococcus aureus [5]; Staphylococcus aureus strain 4): > 12 µg/mL | MIC (Staphylococcus epidermis): > 12 µg/mL | MIC (Streptococcus faecalis; [17]): > 12 µg/mL | MIC (Streptococcus faecalis; [18]): > 12 µg/mL | MIC (Streptococcus pyogenes [6]; [19]): 3.1 µg/mL | MIC (Streptococcus pyogenes [6]; [20]): 0.2 µg/mL | MIC (Streptococcus pneumoniae): 3.1 µg/mL | MIC (Streptococcus viridans): > 12 µg/mL | ED50 (Enterobacter cloacae [7]): 0.06 mg/kg | ED50 (Escherichia coli [8]): 0.017 mg/kg | ED50 (Haemophilus influenzae): 1.8 mg/kg | ED50 (Serratia marcescens [9]; [21]): 0.03 mg/kg | ED50 (Streptococcus pyogenes [10]): 0.13 mg/kg | ED50 (Pseudomonas aeruginosa [11]): 75 mg/kg | ED50 (Neisseria moningitidis): < 0.1 mg/kg | LD50 (Toxicity, LD50; po): > 5000 mg/kg | LD50 (Toxicity, LD50; sc): > 4000 mg/kg

CC1=C(C(=O)[O-])N2C(=O)[C@@H](NC(=O)/C(=N\O)c3c[se]c(N)n3)[C@H]2SC1.[Na+] [Product M, (6R, 7R)-7-[2-[2-amino-4-selenazolyl]-2-[(Z)-hydroxyimino]-acetamido]-3-methyl-8-oxo-5-thia-1-azabicyclo[4.2.0]oct-2-ene-2-carboxylic acid sodium salt]
MIC (Escherichia coli [1]; Escherichia coli strain 1): 0.8 µg/mL | MIC (Escherichia coli [1]; Escherichia coli strain 2): 0.4 µg/mL | MIC (Escherichia coli [1]; Escherichia coli strain 3): 50 µg/mL | MIC (Escherichia coli [1]; Escherichia coli strain 4): 200 µg/mL | MIC (Escherichia coli [1]; Escherichia coli strain 5): 3.1 µg/mL | MIC (Proteus mirabilis; Proteus mirabilis strain 3): 0.8 µg/mL | MIC (Proteus mirabilis; Proteus mirabilis strain 4): 6.3 µg/mL | MIC (Proteus mirabilis; Proteus mirabilis strain 5): 1.6 µg/mL | MIC (Proteus morganii): 100 µg/mL | MIC (Proteus rettgeri): 0.2 µg/mL | MIC (Proteus inconstans): 0.05 µg/mL | MIC (Klebsiella pseumoniae; Klebsiella pseumoniae strain 1): 0.8 µg/mL | MIC (Klebsiella pseumoniae; Klebsiella pseumoniae strain 2): 0.4 µg/mL | MIC (Klebsiella pseumoniae; Klebsiella pseumoniae strain 3): 0.4 µg/mL | MIC (Serratia marcescens [2]; Serratia marcescens strain 1): 25 µg/mL | MIC (Serratia marcescens [2]; Serratia marcescens strain 2): 100 µg/mL | MIC (Serratia marcescens [2]; Serratia marcescens strain 3): 6.3 µg/mL | MIC (Enterobacter cloacae [3]; Enterobacter cloacae strain 1): > 200 µg/mL | MIC (Enterobacter cloacae [3]; Enterobacter cloacae strain 2): > 200 µg/mL | MIC (Enterobacter cloacae [3]; Enterobacter cloacae strain 3): > 200 µg/mL | MIC (Enterobacter aerogenes; [13]): 0.4 µg/mL | MIC (Enterobacter aerogenes; [14]): 1.6 µg/mL | MIC (Citrobacter freundii; Citrobacter freundii strain 1): 100 µg/mL | MIC (Citrobacter freundii; Citrobacter freundii strain 2): 1.6 µg/mL | MIC (Pseudomonas aeruginosa [4]; [15]): > 400 µg/mL | MIC (Pseudomonas aeruginosa [4]; [16]): > 400 µg/mL | MIC (Staphylococcus aureus [5]; Staphylococcus aureus strain 1): 3.1 µg/mL | MIC (Staphylococcus aureus [5]; Staphylococcus aureus strain 2): 6.3 µg/mL | MIC (Staphylococcus aureus [5]; Staphylococcus aureus strain 3): 3.1 µg/mL | MIC (Staphylococcus aureus [5]; Staphylococcus aureus strain 4): 6.3 µg/mL | MIC (Staphylococcus epidermis): 3.1 µg/mL | MIC (Streptococcus faecalis; [17]): 200 µg/mL | MIC (Streptococcus faecalis; [18]): > 200 µg/mL | MIC (Streptococcus pyogenes [6]; [19]): 1.6 µg/mL | MIC (Streptococcus pyogenes [6]; [20]): 0.1 µg/mL | MIC (Streptococcus pneumoniae): 6.3 µg/mL | MIC (Streptococcus viridans): 25 µg/mL | ED50 (Escherichia coli [8]): 1 mg/kg | ED50 (Serratia marcescens [9]; [21]): 3.5 mg/kg | ED50 (Serratia marcescens [9]; mice infected i.p. with Serratia marcescens strain 2, s.c. twice): > 50 mg/kg | ED50 (Staphylococcus aureus [12]): 2.7 mg/kg | ED50 (Streptococcus pyogenes [10]): 0.28 mg/kg
